Measurements published in PMC5218480 (PLoS ONE, 2017).

Test system: MV-4-11 cells
Assay: Gene expression microarray analysis (Affymetrix PrimeView) and GSEA
Type: cell-based, human
Set-up: RFU PODN (11730768_x_at) / Fold change /veh PODN (11730768_x_at) / RFU LINC00158 (11744669_a_at) / Fold change /veh LINC00158 (11744669_a_at) / RFU DUSP10 (11751237_a_at) / Fold change /veh DUSP10 (11751237_a_at) / RFU ID3 (11757404_x_at) / Fold change /veh ID3 (11757404_x_at) / RFU PLEKHG5 (11737974_s_at) / Fold change /veh PLEKHG5 (11737974_s_at) / RFU LRRC4B (11730491_at) / Fold change /veh LRRC4B (11730491_at) / RFU GIMAP4 (11747438_a_at) / Fold change /veh GIMAP4 (11747438_a_at) / RFU KRT8 (11758183_x_at) / Fold change /veh KRT8 (11758183_x_at) / RFU CNN1 (11734310_a_at) / Fold change /veh CNN1 (11734310_a_at) / RFU VPS37D (11726825_at) / Fold change /veh VPS37D (11726825_at) / RFU C10orf10 (11716522_x_at) / Fold change /veh C10orf10 (11716522_x_at) / RFU KIR2DL2 /// KIR2DL4 /// KIR2DL5A /// KIR2DL5B /// KIR2DS1 /// KIR2DS2 /// KIR2DS3 /// KIR2DS4 /// KIR3DL3 /// KIR3DL3 /// KIR3DS1 (11738374_at) / Fold change /veh KIR2DL2 /// KIR2DL4 /// KIR2DL5A /// KIR2DL5B /// KIR2DS1 /// KIR2DS2 /// KIR2DS3 /// KIR2DS4 /// KIR3DL3 /// KIR3DL3 /// KIR3DS1 (11738374_at) / RFU C1QL1 (11718748_at) / Fold change /veh C1QL1 (11718748_at) / RFU TMPRSS4 (11747572_a_at) / Fold change /veh TMPRSS4 (11747572_a_at) / RFU HAMP (11756126_x_at) / Fold change /veh HAMP (11756126_x_at) / RFU RNFT2 (11725882_a_at) / Fold change /veh RNFT2 (11725882_a_at) / RFU NR4A2 (11747474_a_at) / Fold change /veh NR4A2 (11747474_a_at) / RFU ABCC12 (11746883_a_at) / Fold change /veh ABCC12 (11746883_a_at) / RFU TMEM136 (11760407_x_at) / Fold change /veh TMEM136 (11760407_x_at) / RFU CLDN22 /// WWC2 (11732394_at) / Fold change /veh CLDN22 /// WWC2 (11732394_at) / RFU HLA-DPB1 (11760878_x_at) / Fold change /veh HLA-DPB1 (11760878_x_at) / RFU SPINT1 (11716480_a_at) / Fold change /veh SPINT1 (11716480_a_at) / RFU GAP43 (11754022_s_at) / Fold change /veh GAP43 (11754022_s_at) / RFU A4GNT (11735810_at) / Fold change /veh A4GNT (11735810_at) / RFU PRB3 (11715151_x_at) / Fold change /veh PRB3 (11715151_x_at) / RFU TUBB4B (11761932_at) / Fold change /veh TUBB4B (11761932_at) / RFU CAPN14 (11732068_a_at) / Fold change /veh CAPN14 (11732068_a_at) / RFU TMCC2 (11721928_a_at) / Fold change /veh TMCC2 (11721928_a_at) / RFU IRGQ (11745062_a_at) / Fold change /veh IRGQ (11745062_a_at) / RFU FAM174B (11720279_a_at) / Fold change /veh FAM174B (11720279_a_at) / RFU TMPRSS4 (11748680_a_at) / Fold change /veh TMPRSS4 (11748680_a_at) / RFU FAM212B (11763350_a_at) / Fold change /veh FAM212B (11763350_a_at) / RFU PLEKHG5 (11743358_a_at) / Fold change /veh PLEKHG5 (11743358_a_at) / RFU ZSCAN30 (11745921_a_at) / Fold change /veh ZSCAN30 (11745921_a_at) / RFU CMKLR1 (11741424_a_at) / Fold change /veh CMKLR1 (11741424_a_at) / RFU LOC101060620 /// MAPK8IP1 (11723275_at) / Fold change /veh LOC101060620 /// MAPK8IP1 (11723275_at) / RFU SPTSSB (11747773_x_at) / Fold change /veh SPTSSB (11747773_x_at) / RFU PRSS12 (11739890_at) / Fold change /veh PRSS12 (11739890_at) / RFU BIN1 (11741810_x_at) / Fold change /veh BIN1 (11741810_x_at) / RFU WNT11 (11732464_a_at) / Fold change /veh WNT11 (11732464_a_at) / RFU C10orf10 (11716521_a_at) / Fold change /veh C10orf10 (11716521_a_at) / RFU C5orf56 (11738089_at) / Fold change /veh C5orf56 (11738089_at) / RFU CYB561 (11721691_x_at) / Fold change /veh CYB561 (11721691_x_at) / RFU ANKRD19P (11752326_a_at) / Fold change /veh ANKRD19P (11752326_a_at) / RFU OR2T12 /// OR2T33 /// OR2T8 (11738714_s_at) / Fold change /veh OR2T12 /// OR2T33 /// OR2T8 (11738714_s_at) / RFU VCAN (11748164_a_at) / Fold change /veh VCAN (11748164_a_at) / RFU JSRP1 (11732532_at) / Fold change /veh JSRP1 (11732532_at) / RFU KRTAP10-11 (11738290_x_at) / Fold change /veh KRTAP10-11 (11738290_x_at) / RFU MYO3A (11730013_a_at) / Fold change /veh MYO3A (11730013_a_at) / RFU EBF3 (11725865_a_at) / Fold change /veh EBF3 (11725865_a_at) / RFU CAMK2N1 (11719241_x_at) / Fold change /veh CAMK2N1 (11719241_x_at) / RFU C5orf56 (11738088_a_at) / Fold change /veh C5orf56 (11738088_a_at) / RFU OLFML3 (11715873_a_at) / Fold change /veh OLFML3 (11715873_a_at) / RFU LOC100653217 /// NTM (11731650_a_at) / Fold change /veh LOC100653217 /// NTM (11731650_a_at) / RFU MAPK11 (11762145_a_at) / Fold change /veh MAPK11 (11762145_a_at) / RFU FIZ1 (11724087_x_at) / Fold change /veh FIZ1 (11724087_x_at) / RFU OASL (11726364_x_at) / Fold change /veh OASL (11726364_x_at) / RFU SOX15 (11748057_x_at) / Fold change /veh SOX15 (11748057_x_at) / RFU CD79A (11719716_a_at) / Fold change /veh CD79A (11719716_a_at) / RFU HIST1H1D (11736915_at) / Fold change /veh HIST1H1D (11736915_at) / RFU CASKIN2 (11723855_a_at) / Fold change /veh CASKIN2 (11723855_a_at) / RFU LOC730098 (11760151_x_at) / Fold change /veh LOC730098 (11760151_x_at) / RFU OR4N2 (11742367_at) / Fold change /veh OR4N2 (11742367_at) / RFU PRRT2 (11749266_a_at) / Fold change /veh PRRT2 (11749266_a_at) / RFU SNX32 (11753110_a_at) / Fold change /veh SNX32 (11753110_a_at) / RFU CDHR5 (11726645_a_at) / Fold change /veh CDHR5 (11726645_a_at) / RFU RCAN1 (11760418_a_at) / Fold change /veh RCAN1 (11760418_a_at) / RFU FAM167A (11723789_a_at) / Fold change /veh FAM167A (11723789_a_at) / RFU FAM26E (11764081_at) / Fold change /veh FAM26E (11764081_at) / RFU ISYNA1 (11749810_s_at) / Fold change /veh ISYNA1 (11749810_s_at) / RFU ACY1 (11761880_at) / Fold change /veh ACY1 (11761880_at) / RFU 11764098_at / Fold change /veh 11764098_at / RFU SAMD14 (11745864_x_at) / Fold change /veh SAMD14 (11745864_x_at) / RFU NPB (11741838_a_at) / Fold change /veh NPB (11741838_a_at) / RFU TMPRSS6 (11731388_a_at) / Fold change /veh TMPRSS6 (11731388_a_at) / RFU KRTAP10-2 (11738614_at) / Fold change /veh KRTAP10-2 (11738614_at) / RFU ARHGAP8 /// PRR5-ARHGAP8 (11727945_x_at) / Fold change /veh ARHGAP8 /// PRR5-ARHGAP8 (11727945_x_at) / RFU KRTAP5-7 /// NADSYN1 (11734609_at) / Fold change /veh KRTAP5-7 /// NADSYN1 (11734609_at) / RFU RASL12 (11751679_a_at) / Fold change /veh RASL12 (11751679_a_at) / RFU CDKN2B (11736163_a_at) / Fold change /veh CDKN2B (11736163_a_at) / RFU PRF1 (11729649_at) / Fold change /veh PRF1 (11729649_at) / RFU, ZNF638 /// ZNF638-IT1 / Fold change vs veh, ZNF638 /// ZNF638-IT1 / RFU, PANK3 / Fold change vs veh, PANK3 / RFU, SH3YL1 / Fold change vs veh, SH3YL1 / RFU, ZEB2 / Fold change vs veh, ZEB2 / RFU, NRIP1 / Fold change vs veh, NRIP1 / RFU, PTTG1IP / Fold change vs veh, PTTG1IP / RFU, CAPN2 / Fold change vs veh, CAPN2 / RFU, MED14 / Fold change vs veh, MED14 / RFU, SNORA58 / Fold change vs veh, SNORA58 / RFU, C1orf63 / Fold change vs veh, C1orf63 / RFU, LRRFIP1 / Fold change vs veh, LRRFIP1 / RFU, NDUFAF7 / Fold change vs veh, NDUFAF7 / RFU, SLC12A2 / Fold change vs veh, SLC12A2 / RFU, IBTK / Fold change vs veh, IBTK / RFU, ESF1 / Fold change vs veh, ESF1 / Fold change vs veh, TMEM50B / RFU, TAOK1 / Fold change vs veh, TAOK1 / RFU, ACBD3 / Fold change vs veh, ACBD3 / RFU, TMA16 / Fold change vs veh, TMA16 / RFU, RWDD3 / Fold change vs veh, RWDD3 / RFU, BCAT1 / Fold change vs veh, BCAT1 / RFU, EDEM3 / Fold change vs veh, EDEM3 / RFU, TMEM33 / Fold change vs veh, TMEM33 / RFU, WDR75 / Fold change vs veh, WDR75 / RFU, AHCTF1 / Fold change vs veh, AHCTF1 / RFU, TFRC / Fold change vs veh, TFRC / RFU, ZDHHC17 / Fold change vs veh, ZDHHC17 / RFU, NOM1 / Fold change vs veh, NOM1 / RFU, ARL8B / Fold change vs veh, ARL8B / RFU, ZBTB11 / Fold change vs veh, ZBTB11 / RFU, TAMM41 / Fold change vs veh, TAMM41 / RFU, KIAA1704 /// LOC100996395 / Fold change vs veh, KIAA1704 /// LOC100996395 / RFU, ING1 / Fold change vs veh, ING1 / RFU, TRMT61B / Fold change vs veh, TRMT61B / RFU, FUBP3 / Fold change vs veh, FUBP3 / RFU, TP53 / Fold change vs veh, TP53 / RFU, TNKS2 / Fold change vs veh, TNKS2 / RFU, ZFP14 / Fold change vs veh, ZFP14 / RFU, ACTR2 / Fold change vs veh, ACTR2 / RFU, PPP3R1 / Fold change vs veh, PPP3R1 / RFU, PIK3R1 / Fold change vs veh, PIK3R1 / RFU, HNRNPA1 / Fold change vs veh, HNRNPA1 / RFU, RNF170 / Fold change vs veh, RNF170 / RFU, ZNF28 / Fold change vs veh, ZNF28 / RFU, RNGTT / Fold change vs veh, RNGTT / RFU, OGT / Fold change vs veh, OGT / RFU, BRD1 / Fold change vs veh, BRD1 / RFU, MARS / Fold change vs veh, MARS / RFU, ZNF655 / Fold change vs veh, ZNF655 / RFU, FAHD1 / Fold change vs veh, FAHD1 / RFU, BDP1 / Fold change vs veh, BDP1 / RFU, LRRCC1 / Fold change vs veh, LRRCC1 / RFU, ARID1A / Fold change vs veh, ARID1A / RFU, ZNF146 / Fold change vs veh, ZNF146 / RFU, ZNF330 / Fold change vs veh, ZNF330 / RFU, GPN3 / Fold change vs veh, GPN3 / RFU, C9orf123 / Fold change vs veh, C9orf123 / RFU, N4BP2L2 / Fold change vs veh, N4BP2L2 / RFU, ARFIP1 / Fold change vs veh, ARFIP1 / RFU, FAM179B / Fold change vs veh, FAM179B / RFU, BCL10 / Fold change vs veh, BCL10 / RFU, UHRF1BP1L / Fold change vs veh, UHRF1BP1L / RFU, BET1 / Fold change vs veh, BET1 / RFU, CNOT2 / Fold change vs veh, CNOT2 / RFU, ZNF268 / Fold change vs veh, ZNF268 / Fold change vs veh, ZNF507 / RFU, DGCR2 / Fold change vs veh, DGCR2 / RFU, WDSUB1 / Fold change vs veh, WDSUB1 / Fold change vs veh, HSP90B1 /// MIR3652 / RFU, ADSS / Fold change vs veh, ADSS / RFU, GK / Fold change vs veh, GK / RFU, ZNF148 / Fold change vs veh, ZNF148 / RFU, TAF9 / Fold change vs veh, TAF9 / RFU, SLC1A5 / Fold change vs veh, SLC1A5 / RFU, SLMO2 / Fold change vs veh, SLMO2 / RFU, ABCC4 / Fold change vs veh, ABCC4 / RFU, LOC101060439 /// RAP1B / Fold change vs veh, LOC101060439 /// RAP1B / RFU, RFX7 / Fold change vs veh, RFX7 / RFU, GTPBP10 / Fold change vs veh, GTPBP10 / RFU, CNEP1R1 / Fold change vs veh, CNEP1R1 / RFU, BIVM-ERCC5 /// ERCC5 / Fold change vs veh, BIVM-ERCC5 /// ERCC5 / RFU, ILF3 / Fold change vs veh, ILF3 / RFU 11762660_at / Fold change /veh 11762660_at / RFU VCAN (11757783_s_at) / Fold change /veh VCAN (11757783_s_at) / RFU DDX43 (11728927_at) / Fold change /veh DDX43 (11728927_at) / RFU KRT8 (11758188_x_at) / Fold change /veh KRT8 (11758188_x_at) / RFU NKD1 (11759106_at) / Fold change /veh NKD1 (11759106_at) / RFU SRD5A1 (11742802_a_at) / Fold change /veh SRD5A1 (11742802_a_at) / RFU TPSAB1 /// TPSB2 (11721975_s_at) / Fold change /veh TPSAB1 /// TPSB2 (11721975_s_at) / RFU GSTM3 (11746129_a_at) / Fold change /veh GSTM3 (11746129_a_at) / RFU IL23R (11737362_x_at) / Fold change /veh IL23R (11737362_x_at) / RFU TMEM51 (11727254_a_at) / Fold change /veh TMEM51 (11727254_a_at) / RFU PIWIL2 (11732686_x_at) / Fold change /veh PIWIL2 (11732686_x_at) / RFU ORM1 (11744905_x_at) / Fold change /veh ORM1 (11744905_x_at) / RFU CCDC152 (11743942_at) / Fold change /veh CCDC152 (11743942_at) / RFU ECM1 (11717891_a_at) / Fold change /veh ECM1 (11717891_a_at) / RFU IL23R (11748794_a_at) / Fold change /veh IL23R (11748794_a_at) / RFU TNFAIP8L3 (11732012_x_at) / Fold change /veh TNFAIP8L3 (11732012_x_at) / RFU MBOAT4 (11741988_at) / Fold change /veh MBOAT4 (11741988_at) / RFU 11764193_at / Fold change /veh 11764193_at / RFU TMEM53 (11763286_at) / Fold change /veh TMEM53 (11763286_at) / RFU MAGEB2 (11727129_at) / Fold change /veh MAGEB2 (11727129_at) / RFU TMEM200A (11744735_a_at) / Fold change /veh TMEM200A (11744735_a_at) / RFU CCDC152 (11751479_a_at) / Fold change /veh CCDC152 (11751479_a_at) / RFU FAM211A (11726209_a_at) / Fold change /veh FAM211A (11726209_a_at) / RFU RGS16 (11746705_a_at) / Fold change /veh RGS16 (11746705_a_at) / RFU VCAN (11755009_s_at) / Fold change /veh VCAN (11755009_s_at) / RFU RHOB (11743442_s_at) / Fold change /veh RHOB (11743442_s_at) / RFU RGS16 (11720943_a_at) / Fold change /veh RGS16 (11720943_a_at) / RFU RGS16 (11720944_at) / Fold change /veh RGS16 (11720944_at) / RFU, VPS4B / Fold change vs veh, VPS4B / RFU, CREB1 / Fold change vs veh, CREB1 / RFU, DNAJC13 / Fold change vs veh, DNAJC13 / RFU, GNAQ / Fold change vs veh, GNAQ / RFU, CDK5R1 / Fold change vs veh, CDK5R1 / RFU, ZRANB3 / Fold change vs veh, ZRANB3 / RFU, CUL4A / Fold change vs veh, CUL4A / RFU, CCNY / Fold change vs veh, CCNY / RFU, UFL1 / Fold change vs veh, UFL1 / RFU, COG3 / Fold change vs veh, COG3 / RFU, DIAPH2 / Fold change vs veh, DIAPH2 / RFU, SKA2 / Fold change vs veh, SKA2 / RFU, AFF3 / Fold change vs veh, AFF3 / RFU, LMF1 / Fold change vs veh, LMF1 / RFU, IPO11 / Fold change vs veh, IPO11 / RFU, DFFB / Fold change vs veh, DFFB / RFU, FOXP1 / Fold change vs veh, FOXP1 / RFU, CARD8 / Fold change vs veh, CARD8 / RFU, STRN3 / Fold change vs veh, STRN3 / RFU, ADK / Fold change vs veh, ADK / RFU, RASSF2 / Fold change vs veh, RASSF2 / RFU, WIPF1 / Fold change vs veh, WIPF1 / RFU, LARP1B / Fold change vs veh, LARP1B / RFU, RASA1 / Fold change vs veh, RASA1 / RFU, RB1 / Fold change vs veh, RB1 / RFU, PPFIA1 / Fold change vs veh, PPFIA1 / RFU, MAT2A / Fold change vs veh, MAT2A / RFU, CCT5 / Fold change vs veh, CCT5 / RFU, WDR92 / Fold change vs veh, WDR92 / RFU, CUX1 / Fold change vs veh, CUX1 / RFU, TTC7A / Fold change vs veh, TTC7A / RFU, TMEM135 / Fold change vs veh, TMEM135 / RFU, DEPTOR / Fold change vs veh, DEPTOR / RFU, CPM / Fold change vs veh, CPM / RFU, DNAJB6 / Fold change vs veh, DNAJB6 / RFU, CACNA2D3 / Fold change vs veh, CACNA2D3 / RFU, DTX4 / Fold change vs veh, DTX4 / RFU, TFCP2 / Fold change vs veh, TFCP2 / RFU, GMCL1 /// GMCL1P1 / Fold change vs veh, GMCL1 /// GMCL1P1 / RFU, AEBP2 / Fold change vs veh, AEBP2 / RFU, SNHG1 /// SNORD22 /// SNORD25 /// SNORD26 /// SNORD27 /// SNORD28 /// SNORD29 /// SNORD31 / Fold change vs veh, SNHG1 /// SNORD22 /// SNORD25 /// SNORD26 /// SNORD27 /// SNORD28 /// SNORD29 /// SNORD31 / Fold change (Aza/veh), C12orf56 (ProbeSet 11735607_a_at) / Fold change (ACY-1035/veh), C12orf56 (ProbeSet 11735607_a_at) / Fold change (Aza/veh), FGFR1OP (ProbeSet 11751329_s_at) / Fold change (ACY-1035/veh), FGFR1OP (ProbeSet 11751329_s_at) / Fold change (Aza/veh), VPS36 (ProbeSet 11739960_a_at) / Fold change (ACY-1035/veh), VPS36 (ProbeSet 11739960_a_at) / RFU SYPL1 (11715823_x_at) / Fold change /veh SYPL1 (11715823_x_at) / RFU IGFBP7 (11715501_s_at) / Fold change /veh IGFBP7 (11715501_s_at) / RFU REEP3 (11722064_at) / Fold change /veh REEP3 (11722064_at) / RFU IGLL1 (11728026_x_at) / Fold change /veh IGLL1 (11728026_x_at): dose or concentration left out as unconfirmed
Conditions: ProbeSet 11723141_at; LIST B

Nc1ccc(-c2cccs2)cc1NC(=O)c1ccc2c(c1)cc(C1CC1)n2CCN1CCOCC1 [ACY-1035]
Fold change vs veh, ZBTB11: 0.84
